Source: US20100273189A1, “NON SEPARATION ASSAYS WITH SELECTIVE SIGNAL INHIBITORS” (BECKMAN COULTER, INC., priority 2009, published 2010)
Read-outs that look alike come from different tables or passages of the source.

Tests used:
[1] = target: T1, biotinylated HRP (Armoracia rusticana, UniProt P00433); experiment: Model system for selection of SSIA (M280 btn-BSA-AK1-streptavidin particles + Btn-HRP:HRP); format: biochemical
T1 construct: purchased Roche Diagnostics, Indianapolis, Ind., USA
T1 sequence (P00433 31-338 limits assumed): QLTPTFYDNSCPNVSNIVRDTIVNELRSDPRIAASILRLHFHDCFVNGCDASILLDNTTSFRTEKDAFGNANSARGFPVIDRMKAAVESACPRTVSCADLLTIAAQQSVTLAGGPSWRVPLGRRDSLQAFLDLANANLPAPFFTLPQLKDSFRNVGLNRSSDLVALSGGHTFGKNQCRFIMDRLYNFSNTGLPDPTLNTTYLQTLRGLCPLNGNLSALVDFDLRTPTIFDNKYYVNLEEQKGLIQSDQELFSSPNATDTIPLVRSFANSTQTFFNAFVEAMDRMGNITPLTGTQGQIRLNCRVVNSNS

[2] = system: GM-CSF
Method: The term “GM-CSF” refers to granulocyte macrophage […], a protein necessary for the survival, proliferation and differentiation of hematopoietic progenitor cells, having human gene map locus 5q31.1. A variety of antibodies to GM-CSF are commercially available.
Heterogeneous phase assays directed to GM-CSF were conducted using a LodeStars PMP labeled with AK4 and biotin/streptavidin (AK-PMP-SA) as described in Example 3, an antibody-biotin conjugate and an antibody-HRP conjugate binding to GM-CSF. The antibody-HRP conjugate, (antiGM-CSF-HRP) was purchased from Antigenix.
The antibody-biotin (antiGM-CSF-biotin) conjugate was synthesized by adding a 25-fold molar excess (9.28 μg) of sulfo NHS-biotin (Pierce), dissolved in DMF (1 mg/mL), to 0.1 mg of antibody (Antigenix) in 0.1 mL of 0.1 M sodium borate pH 8.25. After a 60 min incubation at ambient temperature, the reaction was left to incubate overnight at 4° C. The biotinylated antibody was purified over a Sephadex G-25 column (GE Healthcare), equilibrated in PBS, pH 7.4, following the manufacturers instructions.
In order to conduct the heterogeneous assay, 30 μL of an antiGM-CSF-Biotin conjugate solution (0.75 μg/mL, 22.5 ng), 30 μL of calibrator solution having GM-CSF in the range 0-30,000 pg/mL, 30 μL of antiGM-CSF-HRP conjugate (2.25 μg/mL, 67 ng), and 30 μL of AK-streptavidin magnetic particle solution (10 μg of particles) were pipetted into the wells of a white microtiter plate. The plate was incubated for 60 minutes at room temperature. 5 μL of a 2-aminophenol solution (11 mM, 55 nmoles) was added as SSIA. The plate was placed into an injection plate luminometer. 100 μL of trigger solution A was added by the luminometer and the chemiluminescent signal was read for 5 seconds.

[3] = 2-aminophenol as SSIA, GM-CSF 0 pg/mL
[4] = 2-aminophenol as SSIA, GM-CSF 1 pg/mL
[5] = 2-aminophenol as SSIA, GM-CSF 3 pg/mL
[6] = 2-aminophenol as SSIA, GM-CSF 5 pg/mL
[7] = 2-aminophenol as SSIA, GM-CSF 10 pg/mL
[8] = 2-aminophenol as SSIA, GM-CSF 100 pg/mL
[9] = 2-aminophenol as SSIA, GM-CSF 1000 pg/mL
[10] = 2-aminophenol as SSIA, GM-CSF 10000 pg/mL

Q: Which results are given for `Nc1ccccc1O` [2-aminophenol]?
A: S/S0 ([1]; Btn-HRP 0 ng/mL vs 0, SSIA 100 μM): 1; B-HRP0 light intensity ([1]; Btn-HRP 0 ng/mL, total HRP 500 ng/mL, SSIA final 100 μM): 65; S1/S0 ([1]; Btn-HRP 1 ng/mL vs 0, SSIA 100 μM): 5.5; B-HRP1 light intensity ([1]; Btn-HRP 1 ng/mL, total HRP 500 ng/mL, SSIA final 100 μM): 356; S2/S0 ([1]; Btn-HRP 10 ng/mL vs 0, SSIA 100 μM): 132.8; B-HRP10 light intensity ([1]; Btn-HRP 10 ng/mL, total HRP 500 ng/mL, SSIA final 100 μM): 8,632; S3/S0 ([1]; Btn-HRP 100 ng/mL vs 0, SSIA 100 μM): 32195.4; B-HRP100 light intensity ([1]; Btn-HRP 100 ng/mL, total HRP 500 ng/mL, SSIA final 100 μM): 2,092,703; S4/S0 ([1]; Btn-HRP 250 ng/mL vs 0, SSIA 100 μM): 61672.1; B-HRP250 light intensity ([1]; Btn-HRP 250 ng/mL, total HRP 500 ng/mL, SSIA final 100 μM): 4,008,689; effect in the model system / utility as SSIA ([1]; SSIA 100 μM, conclusion in words): demonstrating utility as SSIA; Mean RLU ([2]; 2-aminophenol 55 nmoles as SSIA, GM-CSF 30000 pg/mL): 2180 RLU; Mean RLU [2, 3]: 0.7805 RLU; S/S0 [2, 3]: 1.000; Mean RLU [2, 4]: 0.8045 RLU; S/S0 [2, 4]: 1.030; Mean RLU [2, 5]: 0.8865 RLU; S/S0 [2, 5]: 1.135; Mean RLU [2, 6]: 0.9205 RLU; S/S0 [2, 6]: 1.179; Mean RLU [2, 7]: 1.284 RLU; S/S0 [2, 7]: 1.645; Mean RLU [2, 8]: 5.2805 RLU; S/S0 [2, 8]: 6.765; Mean RLU [2, 9]: 47.89 RLU; S/S0 [2, 9]: 61.358; Mean RLU [2, 10]: 580.6 RLU; S/S0 [2, 10]: 743.882; S/S0 ([2]; 2-aminophenol as SSIA, GM-CSF 30000 pg/mL): 2793.081
